Results on five compounds are retold here after patent publication US10550094B2, “Compounds having antioxidant activity against free radicals and anti-inflammatory activity, and corresponding pharmaceutical or cosmetic compositions for skin care” (GIULIANI S.P.A., priority 2015, dated 2020).

For assay [1], the system named is human keratinocytes NCTC2544. Kind of assay: MTT assay with induced oxidative stress (H2O2). It counts as cell-based. The conditions noted are these: 16 h pretreatment, then 1 mM H2O2, NCTC2544. Here is the method:
(§1) The immortalized line of human keratinocytes NCTC2544 is used (Perry V. P. et al., 1957), cultured in sterile flasks ([…]), incubated at 37° C. in a humid atmosphere at 5% CO2 in RPMI culture medium added with bovine fetal serum (FBS), 2 mm glutamine, 1% non-essential amino acids, in the presence of 1% penicillin and streptomycin. The 1:3 split is done every 2 days upon achieving the monolayer by washing with 1×PBS (phosphate buffer without Ca^2+ and Mg^2+) and detachment of cells with a trypsin-EDTA solution at 37° C. for 2 minutes. The cells were kept in culture in 25 cm^3 sterile flasks and incubated at 37° C. in a humid atmosphere at 5% CO2.
Negative control: untreated cells in RPMI medium added to 2.5% fetal bovine serum (FBS), 1% non-essential amino acids (NEAA), 1% of a penicillin and streptomycin mixture (Pen-Strep Mix), and kept in (96 well) 25 cm^2 culture plates at 37° C. and 5% CO2 (in the dark).
Positive control: cells treated for 2 h with 1 mM hydrogen peroxide in RPMI medium added to 2.5% fetal bovine serum (FBS), 1% non-essential amino acids (NEAA), 1% of a penicillin and streptomycin mixture (Pen-Strep Mix), and kept in (96 well) 25 cm^2 culture plates at 37° C. and 5% CO2 (in the dark).
MTT with Induced Oxidative Stress-NCTC 2544
Through this method it is possible to study the protective effects of such compounds on cells then subjected to oxidative stress. The induction of oxidative stress is carried out by incubation with hydrogen peroxide, an agent inducing the production of oxidative damage in cells through the formation of ROS. Any protective effects can be determined through the evaluation of the cell viability post oxidative stress of cells pretreated/pre-exposed to the active compounds to be tested, compared to cells subjected to the same oxidative stress. A greater cell viability will correspond to a protective effect of the compounds tested.
The assay was conducted in accordance with the method described by Coda and collaborators (Coda et al., 2012), with some changes. Human keratinocytes NCTC2544 were seeded in a 96-well plate at the density of 5*10^4 cells/well and incubated at 37° C. until reaching about 80% confluence.
Then, the cells were incubated for 16 hours with the active compounds to be tested and the respective controls at the following concentrations: 13.5 μM and 27 μM. The dilutions were prepared starting from 1000× stock in DMSO, sterile-filtered and using RPMI medium added to 2.5% fetal bovine serum (FBS), 1% non-essential amino acids (NEAA), 1% of a penicillin and streptomycin mixture (Pen-Strep Mix). Cells treated with H2O2 1 mM were used as a positive control; cells kept in culture medium alone (RPMI 2.5% FCS) were used instead as a negative control. After 16 hours of pretreatment, the cells were washed with PBS 1× and incubated for 90 minutes with a […] H2O2 solution (Sigma-Aldrich, St. Louis, Mo., USA) in serum-free medium, in the dark, at 37° C. and 5% CO2.
After the step of induction of the oxidative stress, the cell viability of the samples of the above compounds of the invention was evaluated in accordance with the method described by Mosmann T. Rapid colorimetric assay for cellular growth and survival: application to proliferation and cytotoxicity assays. J Immunol Methods. 1983 Dec. 16; 65(1-2):55-63.
The data were expressed as percentage of cell viability compared with control cells (ctr) not stressed, according to the following formula: % cell viability/ctr=(Abs sample/Abs ctr)·100
All the assays were performed at least two times in duplicate.
Background: Tetrazolium dyes change colour on reduction, which living cells bring about.

A further assay concerns involucrin (IVL). Kind of assay: Skin barrier function protection: involucrin (IVL) gene expression by qRT-PCR in LPS-treated keratinocytes. Type of assay: cell-based, human. The conditions noted are these: 13.5 μM, with LPS, Control + LPS = 1.000. Here is the method:
as §1
Negative control: untreated cells in RPMI medium added to 2.5% fetal bovine serum (FBS), 1% non-essential amino acids (NEAA), 1% of a penicillin and streptomycin mixture (Pen-Strep Mix), and kept in (12 well) 25 cm^2 culture plates at 37° C. and 5% CO2.
Positive control: cells in RPMI medium added to 2.5% fetal bovine serum (FBS), 1% non-essential amino acids (NEAA), 1% of a penicillin and streptomycin mixture (Pen-Strep Mix) and 10 μg/mL LPS (lipopolysaccharide) and kept in ([…]) 25 cm^2 culture plates at 37° C. and 5% CO2 (in the dark).
Study of the Skin Barrier Function Protection
The gene expression of the involucrin (IVL) and fillagrin (FLG) markers was evaluated by relative quantitative RT-PCR (quantitative reverse transcription-polymerase chain reaction-qRT-PCR).
This assay involved three sequential steps: • extraction of total RNA; • retrotranscription in cDNA; • qRT-PCR.
Human keratinocytes NCTC2544 were seeded in 12-well plates at the density of 0.5*10^6 cells/well and incubated until reaching about 80% confluence.
Then, the cells were incubated for 16 and 24 hours with the active compounds to be tested and the respective controls at the following concentrations: 13.5 and 27 μM, and admixed (in the well) with 10 μg/ml LPS.
The dilutions were prepared starting from 1000× stock in DMSO, sterile-filtered and using RPMI medium added to 2.5% fetal bovine serum (FBS), 1% non-essential amino acids (NEAA), 1% of a penicillin and streptomycin mixture (Pen-Strep Mix).
Cells kept in the culture medium alone (RPMI 2.5% FBS) were used as a negative control.
Cells in the culture medium alone (RPMI 2.5% FBS) and treated only with 10 μg/mL LPS were used as a positive control.
After incubation, the RNA was extracted. Total RNA was extracted from NCTC 2544 cells using the commercial kit Ribospin™ (GeneAllBiotechnology Co., LTD).
For RT-PCR amplification, the TaqMan® probe (AppliedBiosystems) method was used. The following TYaqMan probe was used: Hs00846307_s1 (IVL) and Hs00863478_g1 (FLG).
GAPDH: Hs99999905_m1 was used as control gene (housekeeping).
The data obtained were analyzed according to the method of 2-ΔΔCt and so it was possible to calculate the relative values of expression of the gene of interest, normalized compared to the housekeeping gene and calibrated on the control sample (untreated cells): ΔΔCt=ΔCttarget-housekeeping (control)−ΔCttarget-housekeeping (treated cells)
The 2^−ΔΔCt was calculated assuming an amplification efficiency of 100%.

For `OCC1OC(c2ccco2)OC(CO)C1O` (centres unmarked) [Xylitil furfural, xylitil furfural], the “% protection” value is listed as 59.554% in assay [1] (13.5 μM); “remarkable” in assay [1] (13.5 μM, listed as xylitil furfural); 33.651% in assay [1] (27 μM). Further, the “(IVL) 16 h RQ ± SEM” value with involucrin (IVL) amounted to 60.653 ± 14.549.

For the compound `OCC(O)C1OC(c2ccccc2)OC(CO)C1O` (centres unmarked) [Sorbityl benzal, sorbityl benzal], the figures for the “% protection” value in assay [1] (13.5 μM) and in assay [1] (27 μM) were 11.673% and 20.439%, respectively. In addition, the “(IVL) 16 h RQ ± SEM” value with involucrin (IVL) was 6.646 ± 1.733.

In the case of `CC(=O)OCC1OC(c2ccco2)OC(C(COC(C)=O)OC(C)=O)C1OC(C)=O` (centres unmarked) [Tetracetyl sorbityl furfural, tetracetyl sorbityl furfural], the “% protection” value in assay [1] (13.5 μM) is on record as 34.385%; in assay [1] (27 μM) it was 49.201%; in assay [1] (27 μM, listed as tetracetyl sorbityl furfural), “remarkable”. Moreover, in the assay with involucrin (IVL), the “(IVL) 16 h RQ ± SEM” value was 57.282 ± 17.060.

`COc1cc(C2OC(CO)C(O)C(C(O)CO)O2)ccc1O` (centres unmarked) [Sorbityl vanillinal, sorbityl vanillinal]: the figures for the “% protection” value in assay [1] (13.5 μM) and in assay [1] (27 μM) were 11.320% and 22.766%, respectively. Also, the “(IVL) 16 h RQ ± SEM” value with involucrin (IVL) is listed as 18.347 ± 1.664.

In the case of `O=C(OCC1OC(c2ccco2)OC(C(COC(=O)c2ccccc2)OC(=O)c2ccccc2)C1OC(=O)c1ccccc1)c1ccccc1` (centres unmarked) [Tetrabenzoyl sorbityl furfural, tetrabenzoyl sorbityl furfural], the “% protection” value in assay [1] (13.5 μM) was found to be 36.035%; in assay [1] (27 μM), 8.725%. Moreover, in the assay on involucrin (IVL), the “(IVL) 16 h RQ ± SEM” value is recorded as 9.563 ± 1.159.
